The values below come from ChEMBL document CHEMBL3864191 (ACS Med Chem Lett, 2016).

pIC50, pKi: −log10 of the molar value. Values joined by “and” are separate entries in the source; they are usually repeats but may differ in a detail not shown here. Identical values can stand only once. Active and inactive are the calls of the source. The calls are words filed in the database; no cut-off is given here.

Data set [1] is described as follows: Cytotoxicity against human ovarian cancer cells assessed as cell growth inhibition after 48 hrs by SRB assay. Format: functional. The following applies: Cancer cell lines.
Data set [2] can be described thus: Cytotoxicity against human leukemia cells assessed as cell growth inhibition after 48 hrs by SRB assay. In kind it is functional.
Data set [3] is described as follows: Cytotoxicity against human NCI60 cells assessed as cell growth inhibition after 48 hrs by SRB assay. Format: functional. The conditions noted are these: NCI60, 48 h.
The nature of data set [4]: Cytotoxicity against human colon cancer cells assessed as cell growth inhibition after 48 hrs by SRB assay. The conditions noted are these: Cancer cell lines. Format: functional.
A short description of data set [5]: Cytotoxicity against human DU145 cells assessed as reduction in cell viability after 72 hrs by MTT assay. In kind it is functional, cell-based, DU-145.
Data set [6] is described as follows: cells. The conditions noted are these: Homo sapiens, HCT-116, 72 h.
Description: Cytotoxicity against human HCT116 cells assessed as reduction in cell viability after 72 hrs by MTT assay
Data set [7] is described as follows: Cytotoxicity against mouse CT26 cells assessed as reduction in cell viability after 72 hrs by MTT assay. Format: functional, cell-based.
Data set [8] is described as follows: Cytotoxicity against HEK293T cells assessed as reduction in cell viability at 0.33 to 100 uM after 72 hrs by MTT assay. In kind it is toxicity, cell-based. The following applies: human, hek-293t.
The nature of data set [9]: Cytotoxicity against human renal cancer cells assessed as cell growth inhibition after 48 hrs by SRB assay. In kind it is functional. The conditions noted are these: Cancer cell lines.
Data set [10] in a line: cells. The following applies: Homo sapiens, MCF7, 72 h.
Description: Cytotoxicity against human MCF7 cells assessed as reduction in cell viability after 72 hrs by MTT assay
Data set [11] can be described thus: Cytotoxicity against human non-small cell lung cancer cells assessed as cell growth inhibition after 48 hrs by SRB assay. Format: functional. The following applies: Cancer cell lines.
The target in data set [12] is Induced myeloid leukemia cell differentiation protein Mcl-1 (Homo sapiens, UniProt Q07820). Kind of data set: Inhibition of FAM-Bid binding to human MCL1 expressed in Escherichia coli BL21 after 30 mins by fluorescence polarization assay.
Induced myeloid leukemia cell differentiation protein Mcl-1, sequence (Q07820 whole entry): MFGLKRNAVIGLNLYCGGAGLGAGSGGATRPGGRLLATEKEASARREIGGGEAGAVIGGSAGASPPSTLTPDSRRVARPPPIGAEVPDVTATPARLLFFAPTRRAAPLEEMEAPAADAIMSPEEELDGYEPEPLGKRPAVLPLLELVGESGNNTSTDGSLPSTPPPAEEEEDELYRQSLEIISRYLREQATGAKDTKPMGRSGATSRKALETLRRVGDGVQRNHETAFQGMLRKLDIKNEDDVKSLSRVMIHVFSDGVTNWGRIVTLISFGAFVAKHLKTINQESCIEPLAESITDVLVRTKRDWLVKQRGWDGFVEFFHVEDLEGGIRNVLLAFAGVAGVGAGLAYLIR
Data set [13] can be described thus: Cytotoxicity against human melanoma cells assessed as cell growth inhibition after 48 hrs by SRB assay. In kind it is functional.
The nature of data set [14]: Cytotoxicity against African green monkey Vero cells assessed as reduction in cell viability at 0.33 to 100 uM after 72 hrs by MTT assay. In kind it is toxicity, cell-based. The following applies: chlorocebus sabaeus.
Data set [15] can be described thus: Cytotoxicity against human CNS cancer cells assessed as cell growth inhibition after 48 hrs by SRB assay. In kind it is functional. The following applies: Cancer cell lines.
Data set [16] in a line: Cytotoxicity against human breast cancer cells assessed as cell growth inhibition after 48 hrs by SRB assay. In kind it is functional. The conditions noted are these: Cancer cell lines.
Data set [17] is described as follows: Cytotoxicity against human prostate cancer cells assessed as cell growth inhibition after 48 hrs by SRB assay. Format: functional. The following applies: Cancer cell lines.
Data set [18] has as its system NCI60. The data set can be described thus: Cytotoxicity against human NCI60 cells assessed as cell growth inhibition up to 10 uM after 48 hrs by SRB assay. In kind it is functional, cell-based.
Data set [19] deals with Apoptosis regulator Bcl-2 (Homo sapiens, UniProt P10415). Kind of data set: Inhibition of FAM-Bid binding to human BCL2 expressed in Escherichia coli BL21 after 30 mins by fluorescence polarization assay.
Apoptosis regulator Bcl-2, sequence (P10415 whole entry): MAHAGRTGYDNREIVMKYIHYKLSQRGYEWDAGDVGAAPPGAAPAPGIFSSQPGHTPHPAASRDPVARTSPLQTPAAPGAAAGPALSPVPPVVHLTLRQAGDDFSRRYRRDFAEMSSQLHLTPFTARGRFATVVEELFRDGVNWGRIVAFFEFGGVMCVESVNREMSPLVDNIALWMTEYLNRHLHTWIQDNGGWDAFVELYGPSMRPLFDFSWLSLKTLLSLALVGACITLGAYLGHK
Data set [20] in a line: Stability in human liver microsomes at 4.75 uM preincubated for 5 mins followed by NADPH addition after 60 mins by HPLC analysis. The conditions noted are these: 1 h. In kind it is ADME.
Data set [21] can be described thus: Stability in rat liver microsomes at 4.75 uM preincubated for 5 mins followed by NADPH addition after 60 mins by HPLC analysis. In kind it is ADME. The following applies: 1 h.
Data set [22] has as its system MCF7. Kind of data set: Potency index, ratio of (-)-gossypol IC50 to compound IC50 for human MCF7 cells. Format: functional.
The nature of data set [23]: Chemical stability of compound in pH 1 to 10 Hcl solution after 3 hrs by HPLC analysis. Format: physicochemical. The following applies: buffer, pH 1, 3 h.
The subject of data set [24] is CT26. Kind of data set: Potency index, ratio of (-)-gossypol IC50 to compound IC50 for mouse CT26 cells. Format: functional.
In data set [25] the test system is SNB-19. The data set can be described thus: Cytotoxicity against human SNB19 cells assessed as cell growth inhibition after 48 hrs by SRB assay. In kind it is functional, cell-based.
The subject of data set [26] is U-251. Kind of data set: Cytotoxicity against human U251 cells assessed as cell growth inhibition after 48 hrs by SRB assay. In kind it is functional, cell-based.
The test system of data set [27] is RXF 393. The data set can be described thus: Cytotoxicity against human RXF393 cells assessed as cell growth inhibition after 48 hrs by SRB assay. In kind it is functional, cell-based.
Data set [28] has as its system HOP-92. The data set can be described thus: Cytotoxicity against human HOP92 cells assessed as cell growth inhibition after 48 hrs by SRB assay. In kind it is functional, cell-based.

As for `Cc1cc2c(C(C)C)c(O)c(O)c(C=O)c2c(O)c1-c1c(C)cc2c(C(C)C)c(O)c(O)c(C=O)c2c1O` [GOSSYPOL], the GI50 in data set [1] was 3.5 µM; in data set [2], 2.47 µM; in data set [3], 0.8 to 5.1 µM; in [4], 3.19 µM; in [9] it was 3.16 µM; in [11] it was 2.85 µM. The values for the GI50 in data set [13] and in data set [15] were 3.22 µM and 2.97 µM, respectively. Also, the pIC50 in [5] (du-145) was 5.10 and 4.72; in data set [6], 5.44; in data set [7] (ct26), 4.63 and 4.21 and 4.33; in data set [10] it was 4.27; in data set [12], 6.07. Besides, the Activity result in data set [8] and in data set [14] was “Toxic” in each case. The molecule further showed a pKi in data set [12] of 6.79.
Turning to `COC(=O)CN/C=C1\C(=O)C(O)=C(C(C)C)c2cc(C)c(-c3c(C)cc4c(c3O)/C(=C/NCC(=O)OC)C(=O)C(O)=C4C(C)C)c(O)c21`, the GI50 is 1.74 µM in data set [1]; 2.44 µM in data set [16]; 1.92 µM in data set [17]; 1.88 µM in [2]; 1.63 µM in data set [4]; 2.19 µM in data set [9]. Moreover, the figures for the GI50 in data set [11], in data set [13] and in data set [15] were 1.65 µM, 2.84 µM and 1.63 µM, respectively. Also, in data set [18], the “growth inhibition (GI)” value was “Active”. The Activity result in [8] and in data set [14] was “Non-Toxic” in each case. Moreover, the values for the pIC50 in data set [19] and in data set [12] were 6.99 and 5.84, respectively. For the same molecule, the pKi in data set [19] was 8.30; in data set [12], 6.56.
Regarding `CC1(C)CCC(CN2CCN(c3ccc(C(=O)NS(=O)(=O)c4ccc(NCC5CCOCC5)c([N+](=O)[O-])c4)c(Oc4cnc5[nH]ccc5c4)c3)CC2)=C(c2ccc(Cl)cc2)C1` [VENETOCLAX], the 50% growth inhibitory concentration (GI50) in data set [1] is 3.33 µM; in data set [16] it was 2.77 µM; in [17], 3.51 µM; in [2] it was 2.11 µM; in [3] it was 0.2 to 5.1 µM; in [4], 2.85 µM. The GI50 in [9] worked out at 2.6 µM; in data set [11], 2.7 µM; in data set [13], 1.75 µM; in [15], 3.35 µM. The molecule also had a pIC50 in data set [12] below 5.40. The molecule also showed a pKi in data set [12] below 6.11.
Consider `COC(=O)CCCN/C=C1\C(=O)C(O)=C(C(C)C)c2cc(C)c(-c3c(C)cc4c(c3O)/C(=C/NCCCC(=O)OC)C(=O)C(O)=C4C(C)C)c(O)c21` (stereo in doubt; 16), for which the GI50 in [1] was 0.59 µM; in data set [16], 0.74 µM; in data set [17], 0.41 µM; in data set [2], 0.56 µM; in data set [3] it was 0.1 to 1.7 µM; in [4] it was 0.46 µM. Besides, the GI50 in data set [9] is 0.82 µM; in data set [11], 0.48 µM; in data set [13], 0.99 µM; in [15], 0.6 µM. Moreover, the Stability result in data set [20], in data set [21] and in data set [23] was “Stable” in each case. Also, the pIC50 was 5.62 in data set [5] (Homo sapiens, DU-145, 72 h); 5.56 in data set [6]; 5.08 in data set [7] (Mus musculus, CT26, 72 h); 6.08 in data set [19]; 5.36 in data set [10]; 6.02 in data set [12]. The Activity entry in data set [8] and in [14] was “Non-Toxic” throughout. Further, the “Ratio IC50” value in data set [22] was found to be 12. For the same molecule, the negative logarithm of the Ki (pKi) in [19] was 6.47; in [12], 6.74.
In the case of `Cc1cc2c(c(O)c1-c1c(C)cc3c(c1O)/C(=C/NCCCCCCC(=O)O)C(=O)C(O)=C3C(C)C)/C(=C/NCCCCCCC(=O)O)C(=O)C(O)=C2C(C)C`, the pIC50 was 4.72 in [5] (Homo sapiens, DU-145, 72 h); 4.76 in data set [6]; 5.68 in [7] (Mus musculus, CT26, 72 h); 4.94 in data set [10]. Further, the Activity entry in data set [8] and in data set [14] was “Non-Toxic” in each case. In addition, the “Ratio IC50” value in data set [24] came to 11.
Regarding `Cc1cc2c(c(O)c1-c1c(C)cc3c(c1O)/C(=C/NCC(=O)O)C(=O)C(O)=C3C(C)C)/C(=C/NCC(=O)O)C(=O)C(O)=C2C(C)C`, the pIC50 is 4.46 in [5] (Homo sapiens, DU-145, 72 h); 4.57 in [6]; 4.31 in [7] (Mus musculus, CT26, 72 h); 6.24 in [19]; 4.84 in [10]; 6.28 in data set [12]. For the same molecule, in data set [18], the “growth inhibition (GI)” value was “Active”. The Activity entry in data set [8] and in [14] was “Non-Toxic” throughout. Besides, the pKi is 6.65 in [19] and 6.92 in [12].
Regarding `COC(=O)CCCCN/C=C1\C(=O)C(O)=C(C(C)C)c2cc(C)c(-c3c(C)cc4c(c3O)/C(=C/NCCCCC(=O)OC)C(=O)C(O)=C4C(C)C)c(O)c21`, the GI50 stood at 1.26 µM in [1]; 1.08 µM in data set [16]; 1.09 µM in [17]; 0.81 µM in [2]; 1 µM in data set [4]; 1.14 µM in data set [9]. Also, the GI50 in [11] came out at 1.05 µM; in [13], 1.42 µM; in [15], 1.27 µM. The “growth inhibition (GI)” value in data set [25], in data set [18], in [26], in [27] and in data set [28] was “Active” throughout. Also, the pIC50 in [5] (Homo sapiens, DU-145, 72 h) was 5.13; in [6], 5.47; in [7] (Mus musculus, CT26, 72 h), 4.78; in [19], 6.32; in data set [10], 5.09; in data set [12], 6.13. The Activity entry in [8] and in [14] was “Non-Toxic” throughout. Further, the pKi in [19] was 6.74; in data set [12] it was 6.86.
`COC(=O)CCCCCN/C=C1\C(=O)C(O)=C(C(C)C)c2cc(C)c(-c3c(C)cc4c(c3O)/C(=C/NCCCCCC(=O)OC)C(=O)C(O)=C4C(C)C)c(O)c21`: the GI50 in data set [1] was found to be 2.65 µM; in data set [16], 1.72 µM; in data set [17], 1.41 µM; in data set [2] it was 1.03 µM; in data set [4], 1.44 µM; in data set [9] it was 2.08 µM. Besides, the figures for the 50% growth inhibitory concentration (GI50) in data set [11], in data set [13] and in data set [15] were 1.51 µM, 2.35 µM and 1.46 µM, respectively. For the same molecule, the pIC50 is 5.07 in data set [5] (Homo sapiens, DU-145, 72 h); 6.19 in data set [6]; 4.86 in data set [7] (Mus musculus, CT26, 72 h); 6.08 in data set [19]; 4.94 in data set [10]; 5.99 in data set [12]. For the same molecule, the “growth inhibition (GI)” value in data set [18] is “Active”. The Activity result in data set [8] and in data set [14] was “Non-Toxic” each time. Further, the pKi is 6.46 in data set [19] and 6.71 in [12].
